Here are results for three compounds from paper PMC8221158, “Novel pyrrolizines bearing 3,4,5-trimethoxyphenyl moiety: design, synthesis, molecular docking, and biological evaluation as potential multi-target cytotoxic agents” (Journal of Enzyme Inhibition and Medicinal Chemistry, 2021).

One assay deals with EGFR (Homo sapiens, UniProt P00533). In words: Kinase profiling test. In kind it is biochemical. The note with it: stated as inhibition, read-out: inhibition% against EGFR. The method, then: (§1) The test was performed using the radiolabeled ATP determination method (KINEXUS Bioinformatics Corporation, Vancouver, Canada). The test was performed following the previous reports[13]^,[20].
(§2) The three compounds were tested at the same concentration (10 μM) against the same 20 kinases used in the previous report. The test was performed by KINEXUS Bioinformatics Corporation (Vancouver, Canada), following previous reports[13]^,[20].

Assay [1] deals with microtubule cytoskeleton of MCF-7 cells. As to the kind of experiment: Immunofluorescence staining of microtubules. The assay is classed as cell-based, human. The following applies: 5 μM, 24 h.
Another assay deals with T1, Aurora A (Homo sapiens, UniProt O14965).
T1 sequence (O14965 1-403): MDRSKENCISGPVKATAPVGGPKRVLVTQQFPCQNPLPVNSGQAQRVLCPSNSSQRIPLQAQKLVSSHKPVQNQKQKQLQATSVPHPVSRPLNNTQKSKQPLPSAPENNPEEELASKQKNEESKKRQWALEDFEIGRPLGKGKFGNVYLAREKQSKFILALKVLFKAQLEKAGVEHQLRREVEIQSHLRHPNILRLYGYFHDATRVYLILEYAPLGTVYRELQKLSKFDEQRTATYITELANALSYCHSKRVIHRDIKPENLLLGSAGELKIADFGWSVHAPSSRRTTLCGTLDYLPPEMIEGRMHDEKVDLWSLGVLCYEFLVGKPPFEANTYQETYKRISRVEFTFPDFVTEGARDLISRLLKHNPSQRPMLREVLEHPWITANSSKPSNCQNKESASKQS
As to the kind of experiment: Kinase profiling test. The assay is classed as biochemical. The following applies: stated as inhibition. The method, then: as §1, §2

Chain of EGFR (P00533 25-1210): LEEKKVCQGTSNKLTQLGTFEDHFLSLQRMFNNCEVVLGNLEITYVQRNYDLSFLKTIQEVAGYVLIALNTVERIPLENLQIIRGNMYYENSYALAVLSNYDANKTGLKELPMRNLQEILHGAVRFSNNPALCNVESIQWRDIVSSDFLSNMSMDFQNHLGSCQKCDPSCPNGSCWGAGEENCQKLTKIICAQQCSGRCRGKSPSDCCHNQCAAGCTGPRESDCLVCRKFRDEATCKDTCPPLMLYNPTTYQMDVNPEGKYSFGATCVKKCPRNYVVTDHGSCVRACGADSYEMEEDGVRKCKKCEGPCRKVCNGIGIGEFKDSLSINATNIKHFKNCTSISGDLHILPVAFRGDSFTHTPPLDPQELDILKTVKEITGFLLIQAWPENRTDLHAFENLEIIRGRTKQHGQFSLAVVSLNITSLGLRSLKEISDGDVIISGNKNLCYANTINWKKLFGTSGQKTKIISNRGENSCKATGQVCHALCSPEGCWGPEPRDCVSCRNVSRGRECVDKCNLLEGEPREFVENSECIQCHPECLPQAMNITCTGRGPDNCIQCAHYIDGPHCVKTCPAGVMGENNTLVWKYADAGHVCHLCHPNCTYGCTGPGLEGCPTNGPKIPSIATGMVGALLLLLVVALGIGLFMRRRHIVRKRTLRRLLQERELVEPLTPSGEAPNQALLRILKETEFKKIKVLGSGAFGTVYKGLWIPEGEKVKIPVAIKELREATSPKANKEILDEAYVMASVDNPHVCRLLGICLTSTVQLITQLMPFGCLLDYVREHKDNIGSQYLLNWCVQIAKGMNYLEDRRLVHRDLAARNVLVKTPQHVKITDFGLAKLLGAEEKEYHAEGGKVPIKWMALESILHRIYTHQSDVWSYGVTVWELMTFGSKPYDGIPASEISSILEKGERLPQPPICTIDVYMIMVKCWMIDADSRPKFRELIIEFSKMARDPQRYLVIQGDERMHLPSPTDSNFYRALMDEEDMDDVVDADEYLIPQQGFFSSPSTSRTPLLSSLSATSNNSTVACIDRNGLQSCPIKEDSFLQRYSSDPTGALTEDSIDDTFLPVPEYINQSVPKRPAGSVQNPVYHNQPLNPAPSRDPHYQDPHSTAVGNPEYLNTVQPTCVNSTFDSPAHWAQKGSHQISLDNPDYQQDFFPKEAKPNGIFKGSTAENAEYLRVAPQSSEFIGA

With `COc1cc(C(=O)Nc2c(C#N)c3n(c2C(=O)Nc2ccccc2)CCC3)cc(OC)c1OC` [16a, 7-Cyano-N-phenyl-6-(3,4,5-trimethoxybenzamido)-2,3-dihydro-1H-pyrrolizine-5-carboxamide], the inhibition at 10 µM at EGFR was 30%.

Take `COc1cc(C(=O)Nc2c(C#N)c3n(c2C(=O)Nc2ccc(C)cc2)CCC3)cc(OC)c1OC` [16b, 7-Cyano-N-(p-tolyl)-6-(3,4,5-trimethoxybenzamido)-2,3-dihydro-1H-pyrrolizine-5-carboxamide]: the inhibition at 10 µM at EGFR was 11%. Moreover, the “effect on cellular microtubules” value in assay [1] was “shrank and partially disorganised microtubules which split partially into fragments”.

Regarding `COc1cc(C(=O)Nc2c(C#N)c3n(c2C(=O)Nc2ccc(Cl)cc2)CCC3)cc(OC)c1OC` [16d, N-(4-Chlorophenyl)-7-cyano-6-(3,4,5-trimethoxybenzamido) -2,3-dihydro-1H-pyrrolizine-5-carboxamide], the inhibition at 10 µM at Aurora A came to 14%.

The inhibition is the share of the control response that was lost under treatment.
